# Results taken from US9783552B2, “Soluble guanylate cyclase activators” (MERCK SHARP & DOHME CORP., priority 2013, dated 2017).
# Columns and labels:
# sGC α1/β1 heterodimer = molecular target: T1, sGC α1/β1 heterodimer (Homo sapiens, UniProt Q02108+Q02153); test: Cell-Based sGC Functional Assay (CASA Assay); settings: CHO-K1/sGC cells; for EC50: intracellular cGMP by HTRF, 1 hr at 37° C., IP from 4P fit, presence or absence of 1 μM DETA-NO not given; for Emax: cGMP as percentage of maximum cGMP production of Compound A (=100% activation), read-out: % ACT (percent activation)
# T1 construct: expressed in transfected cells
# T1 sequence (Q02108 1-690): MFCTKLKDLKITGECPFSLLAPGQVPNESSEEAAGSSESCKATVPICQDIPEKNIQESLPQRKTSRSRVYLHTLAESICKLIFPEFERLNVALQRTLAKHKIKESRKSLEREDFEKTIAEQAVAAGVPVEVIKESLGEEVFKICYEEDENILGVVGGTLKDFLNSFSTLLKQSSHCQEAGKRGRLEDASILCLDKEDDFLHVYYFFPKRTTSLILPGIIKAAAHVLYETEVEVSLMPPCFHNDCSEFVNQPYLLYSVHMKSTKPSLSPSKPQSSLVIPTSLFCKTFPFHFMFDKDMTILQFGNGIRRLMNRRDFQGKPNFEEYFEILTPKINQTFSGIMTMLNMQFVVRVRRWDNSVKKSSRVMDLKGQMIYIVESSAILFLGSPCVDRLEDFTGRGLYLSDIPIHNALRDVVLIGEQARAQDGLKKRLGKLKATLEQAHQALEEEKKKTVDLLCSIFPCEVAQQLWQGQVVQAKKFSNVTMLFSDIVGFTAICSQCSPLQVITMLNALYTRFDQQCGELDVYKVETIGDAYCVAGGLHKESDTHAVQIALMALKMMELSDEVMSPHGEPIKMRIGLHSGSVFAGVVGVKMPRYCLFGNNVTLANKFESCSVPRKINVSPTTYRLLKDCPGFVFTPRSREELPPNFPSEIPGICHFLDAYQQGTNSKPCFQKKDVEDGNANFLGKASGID
# T1 sequence (Q02153 1-619): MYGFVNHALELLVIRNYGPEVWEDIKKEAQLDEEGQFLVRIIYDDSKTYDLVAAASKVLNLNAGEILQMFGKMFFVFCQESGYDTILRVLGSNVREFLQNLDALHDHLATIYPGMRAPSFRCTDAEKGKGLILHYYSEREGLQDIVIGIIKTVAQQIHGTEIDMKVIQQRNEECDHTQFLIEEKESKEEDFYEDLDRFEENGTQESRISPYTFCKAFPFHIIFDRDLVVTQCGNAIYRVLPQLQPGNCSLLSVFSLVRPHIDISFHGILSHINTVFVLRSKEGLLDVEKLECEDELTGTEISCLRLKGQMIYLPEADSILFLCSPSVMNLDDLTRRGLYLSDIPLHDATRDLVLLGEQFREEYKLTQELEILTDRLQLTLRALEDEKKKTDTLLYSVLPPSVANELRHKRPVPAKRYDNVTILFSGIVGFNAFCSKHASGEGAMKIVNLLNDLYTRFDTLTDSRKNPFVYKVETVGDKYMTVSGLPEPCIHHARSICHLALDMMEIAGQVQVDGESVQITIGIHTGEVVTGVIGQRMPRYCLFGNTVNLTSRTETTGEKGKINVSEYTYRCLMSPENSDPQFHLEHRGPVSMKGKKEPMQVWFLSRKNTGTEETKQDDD
# Summary of the method: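 cGMP accumulation was quantified by HTRF in stable human sGC α1/β1 CHO-K1 cells after 1 hr at 37 °C with compound, 0.5 mM IBMX and 2.5% DMSO. Runs were done in the presence and absence of 1 μM of the NO donor DETA-NO. Activation was normalised to the reference heme-dependent activator maximum (100%), and a 4P fit gave IP and maximum fold induction.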
# [1] = system: Spontaneously hypertensive rats (SHR); test: Acute Efficacy in Spontaneously Hypertensive Rats (SHR); assay type: in vivo, rat; settings: single oral gavage
# Description: Acute Efficacy in Spontaneously Hypertensive Rats (SHR)
# Spontaneously hypertensive rats (SHR, male, Charles River) were implanted with DSI TA 11PA-C40 telemetry device (Data Sciences, Inc., St. Paul, Minn.) under isoflurane or ketamine/metomidine anesthesia. The telemetry unit catheter was inserted into the descending aorta via the femoral artery and the telemetry device was implanted subcutaneously in the left flank area. Animals were allowed to recover from surgery for 14 days before the start of any studies. Blood pressure, heart rate, and activity signals from conscious, freely moving rats were recorded continuously for 30 seconds every 10 min. On the day prior to administration of compound, a single oral dose of vehicle (10% transcutol/20% Cremophor/70% water) was administered to all animals to establish baseline control data. The blood pressure lowering efficacy of compound (PO) or vehicle was evaluated following a single oral gavage. Data were collected as hourly averages, and changes in blood pressure were calculated by subtracting control baseline data on an hourly basis. Animals were maintained on normal diet with a 12 h light-dark cycle.
# Maximum peak decreases of systolic blood pressure (SBP) in SHR at a particular P.O. dose (mpk milligrams per kilogram) for the following Example compounds are provided. Category A=SBP in SHRs<25 mmHg; Category B=SBP in SHRs 25-40 mmHg; Category C=SBP in SHRs>40 mmHg.
EC50 (sGC α1/β1 heterodimer) [µM],Emax (sGC α1/β1 heterodimer) [%],SMILES,"Maximum peak decrease of systolic blood pressure (SBP) in SHR, Category ([1]; Dose 1 mpk P.O.)","Maximum peak decrease of systolic blood pressure (SBP) in SHR, Category ([1]; Dose 3 mpk P.O.)"
0.053,112,"[2H]C([2H])([2H])n1ncc2c(-c3nc(N)c4c(n3)NC(=O)C4(C(=O)NC3CC3)C3CC3)nc(CCC(F)(F)C(F)(F)F)nc21 (single isomer, unassigned) [Example 28, 4-Amino-N,5-dicyclopropyl-2-(6-(3,3,4,4,4-pentafluorobutyl)-1-trideuteriomethyl-1H-pyrazolo[3,4-d]pyrimidin-4-yl)-6-oxo-6,7-dihydro-5H-pyrrolo[2,3-d]pyrimidine-5-carboxamide]",C (Category C=SBP in SHRs>40 mmHg),
0.032,97,"[2H]C([2H])([2H])n1ncc2c(-c3nc(N)c4c(n3)NC(=O)C4(C)c3ccc(F)cc3)nc(CCC(F)(F)C(F)(F)F)nc21 (single isomer, unassigned) [Example 2, 4-Amino-5-(4-fluorophenyl)-5-methyl-2-(6-(3,3,4,4,4-pentafluorobutyl)-1-trideuteriomethyl-1H-pyrazolo[3,4-d]pyrimidin-4-yl)-5H-pyrrolo[2,3-d]pyrimidin-6(7H)-one]",C (Category C=SBP in SHRs>40 mmHg),
0.019,92,"Cn1ccc2c(-c3nc(N)c4c(n3)NC(=O)C4(C)c3ccccc3)nc(CCC(F)(F)C(F)(F)F)nc21 (single isomer, unassigned) [Example 62, 4-Amino-5,7′-dimethyl-2′-(3,3,4,4,4-pentafluorobutyl)-5-phenyl-5H,7′H-[2,4′-bipyrrolo[2,3-d]pyrimidin]-6(7H)-one]",A (Category A=SBP in SHRs<25 mmHg),
1.14,98,"[2H]C([2H])([2H])n1nnc2c(-c3nc(N)c4c(n3)NC(=O)C4(c3ccc(F)cc3)C3CC3)nc(CCC(F)(F)C(F)(F)F)nc21 (single isomer, unassigned) [Example 69, 4-Amino-5-cyclopropyl-5-(4-fluorophenyl)-2-(5-(3,3,4,4,4-pentafluorobutyl-3-trideuteriomethyl)-3H-[1,2,3]triazolo[4,5-d]pyrimidin-7-yl)-5H-pyrrolo[2,3-d]pyrimidin-6(7H)-one]",,B (Category B=SBP in SHRs 25-40 mmHg)
